Assay results: patent publication US10695406B2, “Modulation of cellular stress using a B-cell oxidative and/or endoplasmic reticulum stress inhibitor and a targeting agent” (THE UNIVERSITY OF QUEENSLAND, priority 2014, dated 2020)

Key:
Format in all cases: cell-based
[1] = system: Murine MIN6N8 cells; assay: ERAI-sXBP1 reporter ER stress in MIN6N8 cells with 0.5 mM palmitate; details: 15.4 nM, 24 hours, no palmitate
Experimental: Cell culture: Murine MIN6N8 cells were tested negative for mycoplasma. Cells were routinely cultured in phenol-red free DMEM (Life Technologies) containing 25 mM glucose (3.4 g/L sodium bicarbonate, 50 U/mL penicillin and streptomycin, 71.5 μM β-mercaptoethanol and 10% heat inactivated fetal bovine serum) and transferred to DMEM as above with 5.5 mM glucose 48 h prior to experimentation. Human LS174T cells were cultured in DMEM containing 10% heat-inactivated fetal bovine serum, 50 U mL^−1 penicillin and streptomycin.
ER Stress Measurement: MIN6N8 cells were transfected with the ERAI reporter plasmid (F-XBP1ΔDBD-venus, using Lipofectamine 2000 according to the manufacturer's instructions. For ERAI there was negligible fluorescence in the absence of ER stressors, but upon induction of ER stress, splicing of XBP1 mRNA by IRE1a results in the translation of Venus but not an active form of XBP1. Fluorescence was measured (excitation: 485 nm; emission: 520 nm) using a POLARstar Omega plate reader and cells were treated 48 h after transfection. […] After 24 h, ERAI-sXBP1 GFP reporter fluorescence was measured.

[2] = system: 3T3 adipocytes; assay: 6-NBDG glucose uptake by 3T3 adipocytes with insulin secreted by islets; details: insulin secreted by islets from HFD mice treated with 100 ng/g
Experimental: 3T3 cells were differentiated into adipocytes as previously described, and all experiments were carried out on day 8 post differentiation. 1×10^4 cells were seeded in a black 96-well plate and cultured in serum free 2.8 mM glucose media prior to the addition of insulin. Cells were treated for 1 h with 2 ng/mL recombinant insulin or total insulin from islet secretions at 37° C. as described in figure legends. Subsequently, cells were incubated with 6-(N-(7-nitrobenx-2-oxa-1,3-diazol-4-yl)amino)-6-deoxyglucose (6-NBDG) (MOLECULAR PROBES) for 20 min before cells were washed with PBS and glucose uptake was determined using a POLARstar Omega plate reader.

[3] = system: MIN6N8 murine β-cells; assay: ER stress (ERAI reporter of Xbp1-splicing / Xbp1 splicing) in MIN6N8 β-cells
Experimental: MIN6N8 cells are maintained in line with standard protocols. Cells are transfected with either the ERAI reporter plasmid (F-XBP1ΔDBD-Venus), or the ATF6-GFP plasmid (ADGENE), using LIPFECTAMINE 2000 according to the manufacturer's instructions.
On induction of ER stress, splicing of […] mRNA by IRE1a results in the translation of Venus, but not an active form of XBP1. Fluorescence was measured (excitation: 485 nm; emission: 520 nm) using the POLARstar Omega plate reader and cells were treated 48 h after transfection. The results are normalized with Gapdh expression as fold of vehicle-treated control (Con) cells.
Activation of ATF6 was assessed as follows: the area in pixels per square millimeter co-stained ATF6 and DAPI (blue and green), and total ATF6 staining (green) was determined in 5 fields of view for each section (n=6 for each condition) using IMAGEJ software version 1.45s. Data are presented as the percentage of ATF6 and DAPI co-fluorescence to the total ATF6 fluorescence. Phosphorylation of Ser-51 of eiF2 α was determined by an AlphaScreen assay as per the manufacturer's instructions (PERKIN-ELMER). The Griess reagent method was performed according to the manufacturer's instructions (MOLECULAR PROBES) to assess the intracellular levels of nitric oxide. 5-(and -6-)-carboxy-2,7-dichlorofluorescein diacetate (DCFDA) assay was used to determine the intracellular levels of H2O2 as previously described (Sakon et al., 2003). Cells were treated with glucose or recombinant cytokines at the concentrations indicated in the figure legends, or with 5 μM thapsigargin (SIGMA-ALDRICH) or 10 μg/mL tunicamycin (SIGMA-ALDRICH) or 0.1-0.5 mM Palmitate (SIGMA-ALDRICH) for the times indicated in the legends. ROS was […] using the dihydroethidium (DHE) fluorescent cell-permeable probe (SIGMA-ALDRICH). MIN6N8 cells plated at 2×10^6/mL were incubated with 3 μM DHE and subsequently treated with DMSO (control), 50 ng/mL IL-23 for 30 minutes±[…] IL-22 at the same time or 30 minutes prior to IL-23.
To inhibit transcription factors the following specific inhibitors (and concentrations) were used:
MIN6N8 cells were exposed to a panel of cytokines to determine the effect of each cytokine on ER stress. ER stress was measured using the above-described method. Specifically, the cells were exposed to either a 24 hour treatment of any one of […] glucose (hi glucose), 10 μM H2O2, 0.5 mM palmitic acid or 50 ng/mL cytokines; or a 6 hour treatment with 10 μg/mL tunicamycin or 5 μM thapsigargin.
Experiments to assess ER and/or oxidative stress, and methods of qRT-PCT and/or quantifying gene expression were performed as described for Example 1. Xbp1 splicing is assessed by qRT-PCR, with normalization versus Gapdh, and expression presented as fold of vehicle-treated control cells.

“IL-22: interleukin-22; recombinant murine IL-22 (R&D SYSTEMS) in the mouse experiments” was tested, and the “ER stress caused by the protein alone” value [1] was “did not cause ER stress”, the “reduction in adipocyte 6-NBDG uptake vs insulin from islets of normal chow fed mice” value [2] was 11% and the “UPR activation when ER stress is induced with thapsigargin” value ([3]; 5 μM thapsigargin ± IL-22, 6 hours) was “increases UPR activation”. The “ER stress induced with palmitic acid” value ([3]; 0.1-0.5 mM palmitic acid ± IL-22, 24 hours) was “inhibits ER stress”, the “lowest concentration with efficacy as suppressor of ER stress” value ([3]; MIN6 β-cells) was “around 5 ng/mL” and the “UPR activation by the cytokine alone” value ([3]; no stressor) was “does not appear to activate the UPR”. For the same substance, the “inhibition of ER stress initiated by cytokines or tunicamycin” value ([3]; pair-wise combinations of cytokines) was “inhibit ER stress”.
